Data published in PubChem BioAssay (NCI).
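All cell lines were grown in 96-well plates and treated with compound for 48 hours. TGI: concentration producing complete growth inhibition.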

Legend:
Experiment in all cases: DTP human tumour cell line panel, 48 h
CAKI-1 renal = tested on: CAKI-1 renal
NCI-H23 lung = tested on: NCI-H23 lung
OVCAR-4 ovarian = tested on: OVCAR-4 ovarian
SNB-19 CNS = tested on: SNB-19 CNS
DMS 273 small cell lung = tested on: DMS 273 small cell lung
HL-60(TB) leukemia = tested on: HL-60(TB) leukemia
RPMI-8226 leukemia = tested on: RPMI-8226 leukemia
UACC-257 melanoma = tested on: UACC-257 melanoma
CCRF-CEM leukemia = tested on: CCRF-CEM leukemia
LOX IMVI melanoma = tested on: LOX IMVI melanoma
SN12C renal = tested on: SN12C renal
786-0 renal = tested on: 786-0 renal
OVCAR-5 ovarian = tested on: OVCAR-5 ovarian
SNB-75 CNS = tested on: SNB-75 CNS
EKVX NSCLC = tested on: EKVX NSCLC
NCI-H522 lung = tested on: NCI-H522 lung
TK-10 renal = tested on: TK-10 renal
HCC-2998 colon = tested on: HCC-2998 colon
HCT-116 colon = tested on: HCT-116 colon
RXF 393 renal = tested on: RXF 393 renal
IGROV1 ovarian = tested on: IGROV1 ovarian
K-562 leukemia = tested on: K-562 leukemia
OVCAR-3 ovarian = tested on: OVCAR-3 ovarian
OVCAR-8 ovarian = tested on: OVCAR-8 ovarian
NCI-H226 lung = tested on: NCI-H226 lung
ACHN renal = tested on: ACHN renal
SK-MEL-5 melanoma = tested on: SK-MEL-5 melanoma
SF-539 CNS = tested on: SF-539 CNS
A549 NSCLC = tested on: A549 NSCLC
SW-620 colon = tested on: SW-620 colon
U251 CNS = tested on: U251 CNS
MALME-3M melanoma = tested on: MALME-3M melanoma
SNB-78 CNS = tested on: SNB-78 CNS
HT29 colon = tested on: HT29 colon
SK-MEL-28 melanoma = tested on: SK-MEL-28 melanoma
SK-MEL-2 melanoma = tested on: SK-MEL-2 melanoma
SR leukemia = tested on: SR leukemia
HOP-62 NSCLC = tested on: HOP-62 NSCLC
M14 melanoma = tested on: M14 melanoma
SF-268 CNS = tested on: SF-268 CNS
SF-295 CNS = tested on: SF-295 CNS
MOLT-4 leukemia = tested on: MOLT-4 leukemia
NCI-H460 lung = tested on: NCI-H460 lung
KM12 colon = tested on: KM12 colon
KM20L2 colon = tested on: KM20L2 colon
A498 renal = tested on: A498 renal
DMS 114 small cell lung = tested on: DMS 114 small cell lung
COLO 205 colon = tested on: COLO 205 colon
UACC-62 melanoma = tested on: UACC-62 melanoma
HCT-15 colon = tested on: HCT-15 colon
UO-31 renal = tested on: UO-31 renal
LXFL 529 NSCLC = tested on: LXFL 529 NSCLC
DLD-1 colon = tested on: DLD-1 colon
HOP-18 NSCLC = tested on: HOP-18 NSCLC
M19-MEL melanoma = tested on: M19-MEL melanoma
SK-OV-3 ovarian = tested on: SK-OV-3 ovarian

CN(C)C(=S)/N=c1\ss/c(=N\C(=S)N(C)C)n1-c1cccc(Cl)c1
TGI (CAKI-1 renal): > 100 µM
TGI (NCI-H23 lung): > 100 µM
TGI (OVCAR-4 ovarian): > 100 µM
TGI (SNB-19 CNS): > 100 µM
TGI (DMS 273 small cell lung): > 100 µM
TGI (HL-60(TB) leukemia): > 100 µM
TGI (RPMI-8226 leukemia): > 100 µM
TGI (UACC-257 melanoma): > 100 µM
TGI (CCRF-CEM leukemia): > 100 µM
TGI (LOX IMVI melanoma): > 100 µM
TGI (SN12C renal): > 100 µM
TGI (786-0 renal): > 100 µM
TGI (OVCAR-5 ovarian): > 100 µM
TGI (SNB-75 CNS): > 100 µM
TGI (EKVX NSCLC): > 100 µM
TGI (NCI-H522 lung): > 100 µM
TGI (TK-10 renal): > 100 µM
TGI (HCC-2998 colon): > 100 µM
TGI (HCT-116 colon): > 100 µM
TGI (RXF 393 renal): > 100 µM
TGI (IGROV1 ovarian): > 100 µM
TGI (K-562 leukemia): > 100 µM
TGI (OVCAR-3 ovarian): > 100 µM
TGI (OVCAR-8 ovarian): > 100 µM
TGI (NCI-H226 lung): > 100 µM
TGI (ACHN renal): > 100 µM
TGI (SK-MEL-5 melanoma): > 100 µM
TGI (SF-539 CNS): > 100 µM
TGI (A549 NSCLC): > 100 µM
TGI (SW-620 colon): > 100 µM
TGI (U251 CNS): > 100 µM
TGI (MALME-3M melanoma): > 100 µM
TGI (SNB-78 CNS): > 100 µM
TGI (HT29 colon): > 100 µM
TGI (SK-MEL-28 melanoma): > 100 µM
TGI (SK-MEL-2 melanoma): > 100 µM
TGI (SR leukemia): > 100 µM
TGI (HOP-62 NSCLC): > 100 µM
TGI (M14 melanoma): > 100 µM
TGI (SF-268 CNS): > 100 µM
TGI (SF-295 CNS): > 100 µM
TGI (MOLT-4 leukemia): > 100 µM
TGI (NCI-H460 lung): > 100 µM
TGI (KM12 colon): > 100 µM
TGI (KM20L2 colon): > 100 µM
TGI (A498 renal): > 100 µM
TGI (DMS 114 small cell lung): > 100 µM
TGI (COLO 205 colon): > 100 µM
TGI (UACC-62 melanoma): > 100 µM
TGI (HCT-15 colon): > 100 µM
TGI (UO-31 renal): > 100 µM

NC(=O)CCC(N=c1c2ccccc2n(O)c2ccccc12)C(=O)O (stereo unspecified)
TGI (NCI-H23 lung): > 100 µM
TGI (OVCAR-4 ovarian): > 100 µM
TGI (SNB-19 CNS): > 100 µM
TGI (DMS 273 small cell lung): > 100 µM
TGI (HL-60(TB) leukemia): > 100 µM
TGI (RPMI-8226 leukemia): 97.3 µM
TGI (CCRF-CEM leukemia): > 100 µM
TGI (LOX IMVI melanoma): > 100 µM
TGI (SN12C renal): > 100 µM
TGI (LXFL 529 NSCLC): > 100 µM
TGI (786-0 renal): > 100 µM
TGI (OVCAR-5 ovarian): > 100 µM
TGI (SNB-75 CNS): > 100 µM
TGI (EKVX NSCLC): > 100 µM
TGI (NCI-H522 lung): > 100 µM
TGI (TK-10 renal): > 100 µM
TGI (HCC-2998 colon): > 100 µM
TGI (HCT-116 colon): > 100 µM
TGI (IGROV1 ovarian): > 100 µM
TGI (K-562 leukemia): > 100 µM
TGI (OVCAR-3 ovarian): > 100 µM
TGI (OVCAR-8 ovarian): > 100 µM
TGI (NCI-H226 lung): > 100 µM
TGI (ACHN renal): > 100 µM
TGI (SK-MEL-5 melanoma): > 100 µM
TGI (A549 NSCLC): > 100 µM
TGI (SW-620 colon): > 100 µM
TGI (U251 CNS): > 100 µM
TGI (MALME-3M melanoma): > 100 µM
TGI (DLD-1 colon): > 100 µM
TGI (SNB-78 CNS): > 100 µM
TGI (SK-MEL-28 melanoma): 89.4 µM
TGI (SK-MEL-2 melanoma): > 100 µM
TGI (HOP-62 NSCLC): > 100 µM
TGI (M14 melanoma): > 100 µM
TGI (SF-268 CNS): > 100 µM
TGI (SF-295 CNS): > 100 µM
TGI (MOLT-4 leukemia): > 100 µM
TGI (HOP-18 NSCLC): 98.4 µM
TGI (NCI-H460 lung): > 100 µM
TGI (M19-MEL melanoma): > 100 µM
TGI (KM12 colon): > 100 µM
TGI (KM20L2 colon): > 100 µM
TGI (A498 renal): > 100 µM
TGI (DMS 114 small cell lung): > 100 µM
TGI (COLO 205 colon): > 100 µM
TGI (SK-OV-3 ovarian): > 100 µM
TGI (UACC-62 melanoma): > 100 µM
TGI (HCT-15 colon): > 100 µM
TGI (UO-31 renal): > 100 µM
